According to patent US10736831B2, “Oral care compositions” (Colgate-Palmolive Company, priority 2015, dated 2020):

Tested on: five species mix of representative oral bacterial species
Experiment: resazurin cell viability assay (bacterial metabolism/viability)
Procedure: A five species mix of representative oral bacterial species was used to simulate the complex bacterial flora of the oral environment. A bacterial mix comprising Actinomyces viscosus, Lactobacillus casei, Streptococcus oralis, Fusobacteriaum nucleatum and Veillonella parvulal was incubated with the compound under investigation for 1 hour at 37° C., neutralized, washed and stained with 50 μg/ml resazurin solution. When viable bacteria are incubated with resazurin, the blue non-fluorescent dye is reduced by the bacteria to pink fluorescent resorufin. Fluorescence of the test sample is read at 560 nm excitation/590 nm emission and compared to the fluorescence of a standardized mixture of live and dead bacteria to determine the percentage of the initial population that is viable after incubation.
In order to minimize the effects of formula excipients, dilute 1:100 and 1:10 dentifrice slurries of formulations in water were used in the assay. As before, the test compound (as a dilute slurry) was incubated with the bacteria for 1 hour at 37° C., neutralized, washed and stained with 50 μg/ml resazurin solution. The percentage of viable bacteria was then determined.

Substance | % bacteria viable following treatment (aqueous test solutions, incubated 1 hour at 37° C., resazurin 50 μg/ml, fluorescence 560/590 nm) [%] | antibacterial efficacy compared with comparators (in words) (solutions of Example 1, Table 1)
sodium lauryl ether sulfate [0.5 wt. % SLES] | 19.94 | –
zinc coceth sulfate [0.5 wt. % ZCS] | – | significantly more efficacious than surfactant alone or an aqueous solution of 0.8 wt. % total elemental zinc
